Twelve compounds from patent US10322191B2, “Targeted conjugates and particles and formulations thereof” (TARVEDA THERAPEUTICS, INC., priority 2014, dated 2019) can be followed below.

Like-named read-outs stand apart in the source and are kept apart here. Bridge positions count the residues as written; N and C are the ends. Square brackets hold non-standard residues; d marks the D form. Peptide text beside a SMILES is read from it. * marks the point of attachment. X1 = COc1cc2cc(c1Cl)N(C)C(=O)C[C@H](OC(=O)[C@H](C)N(C)C(=O)CCS*)[C@]1(C)O[C@H]1[C@H](C)[C@@H]1C[C@@](O)(NC(=O)O1)[C@H](OC)/C=C/C=C(\C)C2; Mpa = O=C(O)CCS

This experiment deals with NCI-H524 (ATCC) human lung cancer cells. Type of experiment: cell-based. The procedure: Conjugates were assessed in an in vitro assay evaluating inhibition of cell proliferation. NCI-H524 (ATCC) human lung cancer cells were plated in 96 well, V-bottomed plates (Costar) at a concentration of 5,000 cells/well and 24 hours later were treated with compound for 2 hours and further incubated 70 hours. Compound starting dose was 20 μM and three-fold serial dilutions were done for a total of ten points. After 2 hours of treatment, cells were spun down, the drug containing media was removed, and fresh complete medium was added and used to resuspend the cells, which were spun again. After removal of the wash media, the cells were resuspended in complete medium, then transferred into white walled, flat bottomed 96 well plates. […] Proliferation was measured using CellTiter Glo reagent using the standard protocol (Promega) and a Glomax multi+detection system (Promega). Percent proliferation inhibition was calculated using the following formula: % inhibition=(control-treatment)/control*100. Control is defined as vehicle alone. IC50 curves were generated using the nonlinear regression analysis (four parameter) with GraphPad Prism 6.
Conjugates of the present invention were assessed in an in vitro assay evaluating inhibition of cell proliferation. NCI-H524 (ATCC) human lung cancer cells were plated in 96 well, V-bottomed plates (Costar) at a concentration of 5,000 cells/well. 24 hours later, cells were treated with either conjugate for 2 hours and further incubated 70 hours, or for octreotide competition experiments, treated with 100 μM octreotide for 30 min, and then treated with conjugate for 2 hours, and further incubated for 70 hours. Conjugate starting dose was 20 μM and three fold serial dilutions were done for a total of ten points. After 2 hours of treatment, cells were spun down, the drug containing media was removed, and fresh complete medium was added and used to resuspend the cells, which were spun again. After removal of the wash media, the cells were resuspended in complete medium, then transferred into white walled, flat bottomed 96 well plates. […] Proliferation was measured using CellTiter Glo reagent using the standard protocol (Promega) and a Glomax multi+detection system (Promega). Percent proliferation inhibition was calculated using the following formula: % inhibition=(control-treatment)/control*100. Control is defined as vehicle alone. IC50 curves were generated using the nonlinear regression analysis (four parameter) with GraphPad Prism 6.
Conjugates of the present invention were tested for their activity dependence on the somatostatin receptor. Active agent Z in the conjugate was selected from auristatin, carbazitaxel, DM1, doxorubicin, platinum, SN-38 and vinblastine. Active agent Z is connected to octreotide with various linkers. Proliferation IC50 values of the conjugates were measured. Proliferation IC50 values of the conjugates without octreotide competition were also measured. The ratio of IC50 with octreotide competition and IC50 without octreotide competition is an indicator of whether activity is at least partially dependent on bind to the somatostatin receptor.

Setting [1] is: Table 15, treated 2 hours, further incubated 70 hours, read-out: H524 IC50.
The mark [2] stands for this setting: read-out: H524 IC50+ 100 uM octreotide, Table 15, 100 μM octreotide for 30 min, then conjugate 2 hours, 70 hours incubation.

Regarding `COc1cc2cc(c1Cl)N(C)C(=O)C[C@H](OC(=O)[C@H](C)N(C)C(=O)CCSC1CC(=O)N(CC(=O)N[C@H](Cc3ccccc3)C(=O)N[C@H]3CSSC[C@@H](C(=O)N[C@H](CO)[C@@H](C)O)NC(=O)[C@H]([C@@H](C)O)NC(=O)[C@H](CCCCN)NC(=O)[C@@H](Cc4c[nH]c5ccccc45)NC(=O)[C@H](Cc4ccccc4)NC3=O)C1=O)[C@]1(C)O[C@H]1[C@H](C)[C@@H]1C[C@@](O)(NC(=O)O1)[C@H](OC)/C=C/C=C(\C)C2` (stereo partly drawn) [Conjugate 108], the IC50 (usually the concentration needed to halve the response being measured) was determined as 96 nM under setting [1] and 1280 nM under setting [2].

For `COc1cc2cc(c1Cl)N(C)C(=O)C[C@H](OC(=O)[C@H](C)N(C)C(=O)CCSSC[C@H](NC(=O)[C@@H]1CSSC[C@H](NC(=O)[C@H](N)Cc3ccccc3)C(=O)N[C@@H](Cc3ccc(O)cc3)C(=O)N[C@H](Cc3c[nH]c4ccccc34)C(=O)N[C@@H](CCCCN)C(=O)N[C@@H]([C@@H](C)O)C(=O)N1)C(=O)O)[C@]1(C)O[C@H]1[C@H](C)[C@@H]1C[C@@](O)(NC(=O)O1)[C@H](OC)/C=C/C=C(\C)C2` [Conjugate 61], the IC50 turned out to be 89 nM under setting [1] and 274 nM under setting [2].

Regarding `COc1cc2cc(c1Cl)N(C)C(=O)C[C@H](OC(=O)[C@H](C)N(C)C(=O)CCSSCCC(=O)N1CCN(C(=O)CC[C@H]3C(=O)N[C@@H](Cc4ccc(O)cc4)C(=O)N[C@H](Cc4c[nH]c5ccccc45)C(=O)N[C@@H](CCCCN)C(=O)N[C@@H]([C@@H](C)O)C(=O)N[C@@H](Cc4ccccc4)C(=O)N3C)CC1)[C@]1(C)O[C@H]1[C@H](C)[C@@H]1C[C@@](O)(NC(=O)O1)[C@H](OC)/C=C/C=C(\C)C2` [Conjugate 26], the IC50 under setting [1] was determined as 787 nM and the IC50 under setting [2] was 1160 nM.

In the case of `C[C@@H](O)[C@@H]1NC(=O)[C@H](CCCCN)NC(=O)[C@@H](Cc2c[nH]c3ccccc23)NC(=O)[C@H](Cc2ccccc2)NC(=O)[C@@H](NC(=O)[C@H](N)Cc2ccccc2)CSSC[C@@H](C(=O)N[C@H](CO)[C@@H](C)O)NC1=O` [Octreotide, octreotide, reference compound], for the setting “octreotide alone”, the “effect on cell proliferation” value is on record as “no significant effect”.

Turning to `CCCCCCCCCCC(CCN[C@H](Cc1ccccc1)C(=O)N[C@H]1CSSC[C@@H](C(=O)N[C@@H](Cc2c[nH]c3ccccc23)C(N)=O)NC(=O)[C@H]([C@@H](C)O)NC(=O)[C@H](CCCCN)NC(=O)[C@@H](Cc2c[nH]c3ccccc23)NC(=O)[C@H](Cc2ccc(O)cc2)NC1=O)SSCCC(=O)N(C)[C@@H](C)C(=O)O[C@H]1CC(=O)N(C)c2cc(cc(OC)c2Cl)C/C(C)=C/C=C/[C@@H](OC)[C@@]2(O)C[C@H](OC(=O)N2)[C@@H](C)[C@@H]2O[C@@]12C` (stereo partly drawn) [Conjugate 102], the half-inhibitory concentration (IC50) is, setting by setting: under setting [1], 335 nM; under setting [2], 579 nM.

For the compound `COc1cc2cc(c1Cl)N(C)C(=O)C[C@H](OC(=O)[C@H](C)N(C)C(=O)CCSSCCC(=O)NCCCC[C@@H](N)C(=O)N[C@H]1CSSC[C@@H](C(=O)N[C@H](C(=O)O)[C@@H](C)O)NC(=O)[C@H]([C@@H](C)O)NC(=O)[C@H](CCCCN)NC(=O)[C@@H](Cc3c[nH]c4ccccc34)NC(=O)[C@H](Cc3ccc(O)cc3)NC1=O)[C@]1(C)O[C@H]1[C@H](C)[C@@H]1C[C@@](O)(NC(=O)O1)[C@H](OC)/C=C/C=C(\C)C2` [Conjugate 113], the IC50 runs as follows: under setting [1], 1080 nM; under setting [2], 4920 nM.

Take `COc1cc2cc(c1Cl)N(C)C(=O)C[C@H](OC(=O)[C@H](C)N(C)C(=O)CCSSCCOCCOCCOCCOCCC(=O)N[C@H](Cc1ccccc1)C(=O)N[C@H]1CSSC[C@@H](C(=O)N[C@H](CO)[C@@H](C)O)NC(=O)[C@H]([C@@H](C)O)NC(=O)[C@H](CCCCN)NC(=O)[C@@H](Cc3c[nH]c4ccccc34)NC(=O)[C@H](Cc3ccccc3)NC1=O)[C@]1(C)O[C@H]1[C@H](C)[C@@H]1C[C@@](O)(NC(=O)O1)[C@H](OC)/C=C/C=C(\C)C2` [Conjugate 98]: the half-inhibitory concentration (IC50) under setting [1] came to 690 nM and the IC50 under setting [2] was 1120 nM.

On to `COc1cc2cc(c1Cl)N(C)C(=O)C[C@H](OC(=O)[C@H](C)N(C)C(=O)CCSSCCNC(=O)[C@H](Cc1c[nH]c3ccccc13)NC(=O)[C@@H]1CSSC[C@H](NC(=O)[C@H](N)Cc3ccccc3)C(=O)N[C@@H](Cc3ccc(O)cc3)CN[C@H](Cc3c[nH]c4ccccc34)C(=O)N[C@@H](CCCCN)C(=O)N[C@@H]([C@@H](C)O)C(=O)N1)[C@]1(C)O[C@H]1[C@H](C)[C@@H]1C[C@@](O)(NC(=O)O1)[C@H](OC)/C=C/C=C(\C)C2` [Conjugate 49], for which the IC50 is, setting by setting: under setting [1], 69 nM; under setting [2], 243 nM.

In the case of `COc1cc2cc(c1Cl)N(C)C(=O)C[C@H](OC(=O)[C@H](C)N(C)C(=O)CCSSC[C@H](NC(=O)[C@@H]1CSSC[C@H](NC(=O)[C@H](N)Cc3ccccc3)C(=O)N[C@@H](Cc3ccc(O)cc3)C(=O)N[C@H](Cc3c[nH]c4ccccc34)C(=O)N[C@@H](CCCCN)C(=O)N[C@@H]([C@@H](C)O)C(=O)N1)C(=O)NC1CCCCC1)[C@]1(C)O[C@H]1[C@H](C)[C@@H]1C[C@@](O)(NC(=O)O1)[C@H](OC)/C=C/C=C(\C)C2` [Conjugate 63], the IC50 reads like this: under setting [1], 44 nM; under setting [2], 168 nM.

As for `COc1cc2cc(c1Cl)N(C)C(=O)C[C@H](OC(=O)[C@H](C)N(C)C(=O)CCSSCCC(=O)NCCOCCOCCOCCOCCOCCOCCOCCOCCC(=O)N[C@H](Cc1ccccc1)C(=O)N[C@H]1CSSC[C@@H](C(=O)N[C@H](CO)[C@@H](C)O)NC(=O)[C@H]([C@@H](C)O)NC(=O)[C@H](CCCCN)NC(=O)[C@@H](Cc3c[nH]c4ccccc34)NC(=O)[C@H](Cc3ccccc3)NC1=O)[C@]1(C)O[C@H]1[C@H](C)[C@@H]1C[C@@](O)(NC(=O)O1)[C@H](OC)/C=C/C=C(\C)C2` [Conjugate 6], the 50% inhibitory concentration (IC50) reads like this: (Table 6, treated 2 hours, further incubated 70 hours, read-out: H524 IC50) 234 nM; (read-out: H524 IC50 + 100 μM octreotide, Table 6, with octreotide competition) 629 nM; under setting [2], 629 nM.

Turning to `COc1cc2cc(c1Cl)N(C)C(=O)C[C@H](OC(=O)[C@H](C)N(C)C(=O)CCSSCCC(=O)NCCNC(=O)[C@@H](NC(=O)[C@@H]1CSSC[C@H](NC(=O)[C@H](N)Cc3ccccc3)C(=O)N[C@@H](Cc3ccc(O)cc3)C(=O)N[C@H](Cc3c[nH]c4ccccc34)C(=O)N[C@@H](CCCCN)C(=O)N[C@@H]([C@@H](C)O)C(=O)N1)[C@@H](C)O)[C@]1(C)O[C@H]1[C@H](C)[C@@H]1C[C@@](O)(NC(=O)O1)[C@H](OC)/C=C/C=C(\C)C2` [Conjugate 43], the IC50 is, setting by setting: under setting [1], 1160 nM; under setting [2], 2050 nM.

As for `COc1cc2cc(c1Cl)N(C)C(=O)C[C@H](OC(=O)[C@H](C)N(C)C(=O)CCSSCCC(=O)N[C@H](Cc1ccccc1)C(=O)N[C@H]1CSSC[C@@H](C(=O)N[C@@H](Cc3c[nH]c4ccccc34)C(N)=O)NC(=O)[C@H](C(C)C)NC(=O)[C@H](CCCCN)NC(=O)[C@@H](Cc3c[nH]c4ccccc34)NC(=O)[C@H](Cc3ccc(O)cc3)NC1=O)[C@]1(C)O[C@H]1[C@H](C)[C@@H]1C[C@@](O)(NC(=O)O1)[C@H](OC)/C=C/C=C(\C)C2` [Conjugate 70] ([Mpa](X1)[dF]CY[dW]KVCW-NH2; disulfide 3-8), the concentration for half-maximal inhibition (IC50) under setting [1] worked out at 317 nM and the IC50 under setting [2] came to 417 nM.
